Measured values as given in article PMC8207662, “Divergent camptothecin biosynthetic pathway in Ophiorrhiza pumila” (BMC Biology, 2021).
Substitutions are numbered along the chain they refer to.

How the values were obtained:
[1] = target: T1, OpSLS6 (Ophiorrhiza pumila, UniProt A0A8F3BQ54); test: yeast microsome assay, HPLC of secologanin; type: biochemical; conditions: 1 mM NADPH; 30 °C
T1 construct: gene SLS6; expressed from pESC-Leu in yeast WAT11, microsomes
T1 sequence (A0A8F3BQ54 1-516): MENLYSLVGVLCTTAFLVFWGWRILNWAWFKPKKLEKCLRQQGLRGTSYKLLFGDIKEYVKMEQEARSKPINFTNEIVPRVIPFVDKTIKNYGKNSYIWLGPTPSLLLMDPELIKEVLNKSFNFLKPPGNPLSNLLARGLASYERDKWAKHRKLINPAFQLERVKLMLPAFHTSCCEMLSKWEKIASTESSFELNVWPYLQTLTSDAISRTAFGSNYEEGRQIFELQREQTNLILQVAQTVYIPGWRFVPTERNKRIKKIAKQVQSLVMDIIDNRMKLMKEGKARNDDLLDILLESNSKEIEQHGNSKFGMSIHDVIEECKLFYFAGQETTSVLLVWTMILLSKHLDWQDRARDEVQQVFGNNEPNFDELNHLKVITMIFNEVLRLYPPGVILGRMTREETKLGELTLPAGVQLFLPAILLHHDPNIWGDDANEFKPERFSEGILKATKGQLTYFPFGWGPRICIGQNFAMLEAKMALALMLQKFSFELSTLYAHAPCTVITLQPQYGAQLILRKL

[2] = target: T2, OpSLS3 (Ophiorrhiza pumila, UniProt A0A8F3BRG6); test: yeast microsome assay, HPLC of secologanin; type: biochemical; conditions: 1 mM NADPH; 30 °C
T2 construct: gene SLS3; expressed from pESC-Leu in yeast WAT11, microsomes
T2 sequence (A0A8F3BRG6 1-521): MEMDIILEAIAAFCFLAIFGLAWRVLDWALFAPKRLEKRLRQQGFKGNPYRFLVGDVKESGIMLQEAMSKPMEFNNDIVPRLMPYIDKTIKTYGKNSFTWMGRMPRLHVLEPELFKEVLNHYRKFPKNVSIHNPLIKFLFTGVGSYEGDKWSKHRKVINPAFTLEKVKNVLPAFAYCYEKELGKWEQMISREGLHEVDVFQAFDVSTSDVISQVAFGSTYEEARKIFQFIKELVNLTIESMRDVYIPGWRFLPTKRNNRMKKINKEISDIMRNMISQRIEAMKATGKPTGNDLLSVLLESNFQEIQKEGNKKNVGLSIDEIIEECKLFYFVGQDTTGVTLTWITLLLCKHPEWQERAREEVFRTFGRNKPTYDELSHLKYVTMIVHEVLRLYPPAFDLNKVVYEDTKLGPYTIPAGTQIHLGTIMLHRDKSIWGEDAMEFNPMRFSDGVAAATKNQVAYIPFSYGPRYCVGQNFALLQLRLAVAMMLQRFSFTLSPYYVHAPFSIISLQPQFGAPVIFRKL

[3] = target: T3, OpSLS5 (Ophiorrhiza pumila, UniProt A0A8F3BPP9); test: yeast microsome assay, HPLC of secologanin; type: biochemical; conditions: 1 mM NADPH; 30 °C
T3 construct: gene SLS5; expressed from pESC-Leu in yeast WAT11, microsomes
T3 sequence (A0A8F3BPP9 1-521): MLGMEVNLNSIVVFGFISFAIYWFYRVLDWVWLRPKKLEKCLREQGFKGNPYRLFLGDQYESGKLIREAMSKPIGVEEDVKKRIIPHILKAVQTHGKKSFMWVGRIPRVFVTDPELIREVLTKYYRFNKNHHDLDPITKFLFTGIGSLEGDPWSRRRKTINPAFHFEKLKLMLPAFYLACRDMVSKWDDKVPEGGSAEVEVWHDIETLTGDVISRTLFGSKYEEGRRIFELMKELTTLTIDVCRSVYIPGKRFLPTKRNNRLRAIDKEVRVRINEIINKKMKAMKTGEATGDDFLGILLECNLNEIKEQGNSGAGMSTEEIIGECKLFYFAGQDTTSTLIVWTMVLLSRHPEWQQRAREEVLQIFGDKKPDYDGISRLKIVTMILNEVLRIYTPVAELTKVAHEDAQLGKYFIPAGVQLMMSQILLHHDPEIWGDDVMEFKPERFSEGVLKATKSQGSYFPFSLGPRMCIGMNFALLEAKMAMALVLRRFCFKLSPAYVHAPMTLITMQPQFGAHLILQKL

[4] = target: T4, OpSLS4 (Ophiorrhiza pumila, UniProt A0A8F3BRW9); test: yeast microsome assay, HPLC of secologanin; type: biochemical; conditions: 1 mM NADPH; 30 °C
T4 construct: gene SLS4; expressed from pESC-Leu in yeast WAT11, microsomes

[5] = target: T5, OpSLS1 (Ophiorrhiza pumila, UniProt A0A8F2YIW0); test: yeast microsome assay, HPLC of secologanin; type: biochemical; conditions: 1 mM NADPH; 30 °C
T5 construct: gene SLS1; expressed from pESC-Leu in yeast WAT11, microsomes
T5 sequence (A0A8F2YIW0 1-522): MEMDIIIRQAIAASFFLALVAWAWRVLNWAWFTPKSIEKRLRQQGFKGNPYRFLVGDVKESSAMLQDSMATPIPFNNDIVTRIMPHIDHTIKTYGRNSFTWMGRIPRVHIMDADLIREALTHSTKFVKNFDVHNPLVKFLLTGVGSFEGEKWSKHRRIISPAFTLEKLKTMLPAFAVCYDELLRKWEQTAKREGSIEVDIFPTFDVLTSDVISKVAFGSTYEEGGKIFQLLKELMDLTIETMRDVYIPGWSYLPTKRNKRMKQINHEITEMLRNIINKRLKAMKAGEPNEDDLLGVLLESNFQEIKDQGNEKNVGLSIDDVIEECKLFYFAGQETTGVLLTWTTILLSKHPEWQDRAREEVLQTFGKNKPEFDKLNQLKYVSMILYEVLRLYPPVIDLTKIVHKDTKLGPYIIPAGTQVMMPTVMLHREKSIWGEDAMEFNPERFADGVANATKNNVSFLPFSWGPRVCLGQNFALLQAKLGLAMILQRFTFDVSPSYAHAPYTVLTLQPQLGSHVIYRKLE

[6] = target: T6, OpLAMT (Ophiorrhiza pumila, UniProt A0A8F2YIU9); test: assay of secologanin formation, printed as microsome assay with recombinant OpLAMT; type: biochemical; conditions: SAM
T6 construct: gene LAMT; recombinant from pET-30a in E. coli BL21(DE3), Ni resin purified
T6 sequence (A0A8F2YIU9 1-381): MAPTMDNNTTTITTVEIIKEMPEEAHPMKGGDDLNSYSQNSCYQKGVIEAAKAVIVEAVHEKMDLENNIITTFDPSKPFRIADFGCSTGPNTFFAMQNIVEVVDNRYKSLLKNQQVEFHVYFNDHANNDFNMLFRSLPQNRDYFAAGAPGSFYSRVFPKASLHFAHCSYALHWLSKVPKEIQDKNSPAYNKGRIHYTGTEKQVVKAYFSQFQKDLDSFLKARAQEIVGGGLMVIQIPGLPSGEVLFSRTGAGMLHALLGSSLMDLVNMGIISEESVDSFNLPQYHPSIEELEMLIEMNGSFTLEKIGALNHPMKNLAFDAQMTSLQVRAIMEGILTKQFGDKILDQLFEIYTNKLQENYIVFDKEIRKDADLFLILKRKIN

[7] = target: T7, CaSTR2 (Camptotheca acuminata, UniProt A0A8F2YJ04); test: LC-MS of strictosidinic acid formation; type: biochemical; conditions: tryptamine co-substrate
T7 construct: gene STR2; recombinant from pET30a in E. coli BL21(DE3), Ni resin purified
T7 sequence (A0A8F2YJ04 32-329): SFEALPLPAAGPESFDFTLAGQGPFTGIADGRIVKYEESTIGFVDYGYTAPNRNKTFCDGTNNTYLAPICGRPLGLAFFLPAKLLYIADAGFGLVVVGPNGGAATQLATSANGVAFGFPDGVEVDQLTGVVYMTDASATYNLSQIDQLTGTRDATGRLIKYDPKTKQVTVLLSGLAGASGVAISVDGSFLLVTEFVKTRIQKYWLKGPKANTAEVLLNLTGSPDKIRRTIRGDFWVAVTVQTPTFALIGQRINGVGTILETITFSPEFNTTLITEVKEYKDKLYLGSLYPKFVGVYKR

[8] = target: T6, OpLAMT; test: HPLC assay, loganin formation; type: biochemical; conditions: 1 mM SAM; pH 7.5; 30 °C
[9] = target: T8, CaSTR1 (Camptotheca acuminata, UniProt A0A8F2YIY3); test: LC-MS of strictosidine formation; type: biochemical; conditions: tryptamine co-substrate
T8 construct: gene STR1; recombinant from pET30a in E. coli BL21(DE3), Ni resin purified
T8 sequence (A0A8F2YIY3 73-370): T7 sequence (A0A8F2YJ04 32-329) with S39P, L66S, G91S, V185A, V238I, V240I, Y279H

[10] = target: T7, CaSTR2; test: LC-MS of strictosidine formation; type: biochemical; conditions: tryptamine co-substrate
[11] = target: T9, CaSTR3 (Camptotheca acuminata, UniProt A0A8F2YIV8); test: LC-MS of strictosidine formation; type: biochemical; conditions: tryptamine co-substrate
T9 construct: gene STR3; recombinant from pET30a in E. coli BL21(DE3), Ni resin purified
T9 sequence (A0A8F2YIV8 31-330): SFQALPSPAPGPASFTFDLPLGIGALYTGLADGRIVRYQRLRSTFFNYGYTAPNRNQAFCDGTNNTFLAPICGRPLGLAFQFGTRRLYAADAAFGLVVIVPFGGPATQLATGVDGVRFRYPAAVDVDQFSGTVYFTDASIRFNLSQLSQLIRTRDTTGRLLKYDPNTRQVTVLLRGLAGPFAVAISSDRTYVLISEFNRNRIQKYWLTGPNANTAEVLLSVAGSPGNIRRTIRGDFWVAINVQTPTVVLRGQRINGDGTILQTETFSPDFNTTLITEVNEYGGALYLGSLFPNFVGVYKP

[12] = substrate: C=C[C@H]1[C@H](O[C@@H]2O[C@H](CO)[C@@H](O)[C@H](O)[C@H]2O)OC=C(C(=O)OC)[C@H]1CC=O; test: LC-MS of strictosidine formation; type: biochemical, Ophiorrhiza pumila; conditions: tryptamine co-substrate
Excerpt: LC-MS of strictosidine formation on OpSTR | we furtherly characterized the kinetic parameters of OpSTR using LCMS

T4 sequence (A0A8F3BRW9 1-517): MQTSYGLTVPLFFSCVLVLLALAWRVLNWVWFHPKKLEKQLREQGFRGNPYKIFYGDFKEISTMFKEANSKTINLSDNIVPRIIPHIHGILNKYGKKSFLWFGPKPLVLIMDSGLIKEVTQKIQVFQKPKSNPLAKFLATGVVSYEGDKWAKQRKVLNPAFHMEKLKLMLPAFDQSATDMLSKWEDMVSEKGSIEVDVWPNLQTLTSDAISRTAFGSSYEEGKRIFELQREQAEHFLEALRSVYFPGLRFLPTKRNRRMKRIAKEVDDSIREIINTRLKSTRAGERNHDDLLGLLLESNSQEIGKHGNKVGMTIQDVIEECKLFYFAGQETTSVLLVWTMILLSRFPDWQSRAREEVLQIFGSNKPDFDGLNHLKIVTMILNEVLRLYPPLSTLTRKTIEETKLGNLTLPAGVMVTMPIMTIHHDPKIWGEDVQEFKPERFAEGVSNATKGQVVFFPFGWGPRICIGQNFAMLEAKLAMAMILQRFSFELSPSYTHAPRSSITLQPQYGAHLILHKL

## COC(=O)C1=CO[C@@H](O[C@@H]2O[C@H](CO)[C@@H](O)[C@H](O)[C@H]2O)[C@@H]2[C@@H](C)[C@@H](O)C[C@H]12 [loganin]
[1]
  yeast microsome assay, HPLC of secologanin: five OpSLS proteins (OpSLS1, OpSLS3, OpSLS4, OpSLS5, OpSLS6) exhibited secologanin synthase activity
[2]
  yeast microsome assay, HPLC of secologanin: five OpSLS proteins (OpSLS1, OpSLS3, OpSLS4, OpSLS5, OpSLS6) exhibited secologanin synthase activity
[3]
  yeast microsome assay, HPLC of secologanin: five OpSLS proteins (OpSLS1, OpSLS3, OpSLS4, OpSLS5, OpSLS6) exhibited secologanin synthase activity
[4]
  yeast microsome assay, HPLC of secologanin: five OpSLS proteins (OpSLS1, OpSLS3, OpSLS4, OpSLS5, OpSLS6) exhibited secologanin synthase activity
[5]
  yeast microsome assay, HPLC of secologanin: five OpSLS proteins (OpSLS1, OpSLS3, OpSLS4, OpSLS5, OpSLS6) exhibited secologanin synthase activity

## C=C[C@@H]1C(CC=O)C(C(=O)O)=CO[C@H]1O[C@@H]1O[C@H](CO)[C@@H](O)[C@H](O)[C@H]1O (stereo partly drawn) [secologanic acid]
[6]
  assay of secologanin formation, printed as microsome assay with recombinant OpLA: a microsome assay with secologanic acid as a substrate for recombinant OpLAMT revealed methylation
[7]
  LC-MS of strictosidinic acid formation: OpSTR and CaSTR2 used both secologanin and secologanic acid activity as their substrates

## C[C@@H]1[C@H]2[C@H](O[C@@H]3O[C@H](CO)[C@@H](O)[C@H](O)[C@H]3O)OC=C(C(=O)O)[C@H]2C[C@@H]1O [loganic acid]
[8]
  HPLC assay, loganin formation: The purified recombinant protein converted loganic acid and S-adenosyl methionine (SAM) into loganin

## C=C[C@H]1[C@H](O[C@@H]2O[C@H](CO)[C@@H](O)[C@H](O)[C@H]2O)OC=C(C(=O)OC)[C@H]1CC=O [secologanin]
[9]
  LC-MS of strictosidine formation: NnSTR, CaSTR1, and CaSTR3 displayed substrate specificity towards secologanin only
[10]
  LC-MS of strictosidine formation: OpSTR and CaSTR2 used both secologanin and secologanic acid activity as their substrates
[11]
  LC-MS of strictosidine formation: NnSTR, CaSTR1, and CaSTR3 displayed substrate specificity towards secologanin only

B1: OpSTR (Ophiorrhiza pumila) (protein)
chain: SPEFFEFIEAPSYGPNAYAFDSDGELYASVEDGRIIKYDKPSNKFLTHAVASPIWNNALCENNTNQDLKPLCGRVYDFGFHYETQRLYIADCYFGLGFVGPDGGHAIQLATSGDGVEFKWLYALAIDQQAGFVYVTDVSTKYDDRGVQDIIRINDTTGRLIKYDPSTEEVTVLMKGLNIPGGTEVSKDGSFVLVGEFASHRILKYWLKGPKANTSEFLLKVRGPGNIKRTKDGDFWVASSDNNGITVTPRGIRFDEFGNILEVVAIPLPYKGEHIEQVQEHDGALFVGSLFHEFVGILHNYKSSVDHHQEKNSGGLNASFKEFSSF
notes: recombinant from pET30a in E. coli BL21(DE3), Ni resin purified
[12]
  Km: 382 ± 68.1 µM
  Vmax: 0.0377 µmol/min/mg
  kcat: 0.0524 s⁻¹
  kcat/Km: 137 M⁻¹ s⁻¹
